Laboratory results taken from ChEMBL document CHEMBL1759977, “Investigation of the mode of binding of a novel series of N-benzyl-4-heteroaryl-1-(phenylsulfonyl)piperazine-2-carboxamides to the hepatitis C virus polymerase” (Bioorg Med Chem Lett, 2011).
The source made the active and inactive calls. The rule behind the calls is not given here.

What was measured:
[1] = system: Hepatitis C virus; experiment: Antiviral activity against Hepatitis C virus subtype 1b by replication assay; format: functional, organism-based, Hepacivirus hominis; conditions: genotype 1b
[2] = system: Hepatitis C virus; experiment: Antiviral activity against Hepatitis C virus subtype 1a by replication assay; format: functional, organism-based, Hepacivirus hominis
[3] = system: Hepatitis C virus; experiment: Binding affinity to HCV 1b NS5B polymerase; conditions: Hepatitis C virus subtype 1b
[4] = system: Hepatitis C virus subtype 1a; experiment: Binding affinity to HCV 1a wild type NS5B polymerase

| Structure (SMILES) | EC50 [1] [nM] | EC50 [2] [nM] | Activity [4] | Activity [3] |
| --- | --- | --- | --- | --- |
| O=C(NC1CC1)c1ccc(N2CCN(S(=O)(=O)c3ccc(OC(F)(F)F)cc3)[C@@H](C(=O)NCc3ccc(OC(F)(F)F)cc3)C2)nn1 | 9 | 169 | Active | Active |
| CCc1ccc(S(=O)(=O)N2CCN(c3cc(OC)nc(OC)n3)CC2C(=O)NCc2ccc(OC)cc2)cc1 (racemic) | 2000 | 25000 |  |  |
| COc1ccc(CNC(=O)C2CN(c3ccc(Cl)nn3)CCN2S(=O)(=O)c2ccc(OC(F)(F)F)cc2)cc1 (racemic) | 700 | 2200 |  | Active |

Continued by falling EC50 [1], values first:

| EC50 [1] [nM] | EC50 [2] [nM] | Activity [4] | Structure (SMILES) | Activity [3] |
| --- | --- | --- | --- | --- |
| 700 | 8100 |  | COc1ccc(CNC(=O)C2CN(c3cc(OC)nc(OC)n3)CCN2S(=O)(=O)c2ccc(OC(F)(F)F)cc2)cc1 (racemic) | Active |
| 7 | 87 |  | CC[C@H](C)NC(=O)c1ccc(N2CCN(S(=O)(=O)c3ccc(OC(F)(F)F)cc3)[C@@H](C(=O)NCc3ccc(OC(F)(F)F)cc3)C2)nn1 |  |
